Where “and” joins values, the source holds several entries; their conditions need not be identical. Equal values may be shown once.
Experiments:
Format in all cases: functional, Homo sapiens
U2OS [1] = assay: (§1) Here: values are normalized to the negative (DMSO; defined as 0% autophagy induction) and positive (250nM Torin1; mTOR inhibitor; defined as maximal inducer of autophagy = 100%) control compounds and represented as % of autophagy induction. […] The impact of autophagy induction on cells is complex and depends on the affected target. As such, the magnitude of a phenotype may not be equally mirrored in the %-value of autophagy induction and vice versa. The dynamics of the induction may indicate the mode of activation: e.g. activation via phosphorylation or a signaling cascade may occur fast, while activation via transcription factors may take considerably longer. […] Of note, treatment concentrations may be sub-optimal for specific compounds, leading to false negative annotations.; settings: Culturing Media DMEM, 1 % Penicillin/Streptomycin, 10% Fetal bovin serum Add-On: No, Screening Media Control DMEM, Screening Media Samples DMEM
TERT-RPE1 = assay: as §1; settings: Culturing Media DMEM/F12 (1:1), 1 % Penicillin/Streptomycin, 10% Fetal bovin serum Add-On: No, Screening Media Control DMEM/F12 (1:1), Screening Media Samples DMEM/F12 (1:1)
U2OS [2] = assay: as §1; settings: Culturing Media DMEM, 1 % Penicillin/Streptomycin, 10% Fetal bovin serum Add-On: No, Screening Media Control DMEM, Screening Media Samples DMEM; remark: listed apart in the source
[3] = Compound Concentration 0.5 uM, Timepoint 12 hours
[4] = Compound Concentration 0.5 uM, Timepoint 24 hours
[5] = Compound Concentration 0.5 uM, Timepoint 36 hours
[6] = Compound Concentration 0.5 uM, Timepoint 60 hours
[7] = Compound Concentration 2 uM, Timepoint 12 hours
[8] = Compound Concentration 2 uM, Timepoint 24 hours
[9] = Compound Concentration 2 uM, Timepoint 36 hours
[10] = Compound Concentration 2 uM, Timepoint 60 hours
[11] = Compound Concentration 10 uM, Timepoint 12 hours
[12] = Compound Concentration 10 uM, Timepoint 24 hours
[13] = Compound Concentration 10 uM, Timepoint 36 hours
[14] = Compound Concentration 10 uM, Timepoint 60 hours
[15] = Compound Concentration 0.5 uM, Timepoint 12 hours, 12 h, 0.5 µM
[16] = Compound Concentration 0.5 uM, Timepoint 24 hours, 24 h, 0.5 µM
[17] = Compound Concentration 0.5 uM, Timepoint 36 hours, 36 h, 0.5 µM
[18] = Compound Concentration 0.5 uM, Timepoint 60 hours, 60 h, 0.5 µM
[19] = Compound Concentration 2 uM, Timepoint 12 hours, 12 h, 2 µM
[20] = Compound Concentration 2 uM, Timepoint 24 hours, 24 h, 2 µM
[21] = Compound Concentration 2 uM, Timepoint 36 hours, 36 h, 2 µM
[22] = Compound Concentration 2 uM, Timepoint 60 hours, 60 h, 2 µM
[23] = Compound Concentration 10 uM, Timepoint 12 hours, 12 h, 10 µM
[24] = Compound Concentration 10 uM, Timepoint 24 hours, 24 h, 10 µM
[25] = Compound Concentration 10 uM, Timepoint 36 hours, 36 h, 10 µM

With `COc1ccc(S(=O)(=O)N2c3ccc(Cl)cc3[C@](O)(c3ccccc3Cl)[C@@H]2C(=O)N2CCC[C@H]2C(N)=O)cc1OC` [RELCOVAPTAN] the autophagy induction (U2OS [1]; [3]) was -0.4488%, the autophagy induction (U2OS [1]; [4]) was -3.182% and the autophagy induction (U2OS [1]; [5]) was -42.6034%. It also gave an autophagy induction (U2OS [1]; [6]) of -2.284%, an autophagy induction (U2OS [1]; [7]) of -3.799% and an autophagy induction (U2OS [1]; [8]) of -4.202%. It also gave an autophagy induction (U2OS [1]; [9]) of -60.4871%, an autophagy induction (U2OS [1]; [10]) of -1.266% and an autophagy induction (U2OS [1]; [11]) of 4.624%. The autophagy induction (U2OS [1]; [12]) was 2.3507%, the autophagy induction (U2OS [1]; [13]) was -58.7044% and the autophagy induction (U2OS [1]; [14]) was -2.271%. The autophagy induction (TERT-RPE1; [15]) was -0.4521% and -5.349%, the autophagy induction (TERT-RPE1; [16]) was -0.2273% and -4.727% and the autophagy induction (TERT-RPE1; [17]) was -2.897% and -4.661%. The autophagy induction (TERT-RPE1; [18]) was -4.347% and -7.0603%, the autophagy induction (TERT-RPE1; [19]) was 0.8726% and -2.524% and the autophagy induction (TERT-RPE1; [20]) was -1.739% and -2.756%. The autophagy induction (TERT-RPE1; [21]) was -2.675% and -2.785%, the autophagy induction (TERT-RPE1; [22]) was -4.303% and -2.0726% and the autophagy induction (TERT-RPE1; [23]) was 0.7279% and 5.088%. The autophagy induction (TERT-RPE1; [24]) was 4.093% and 9.7265%, the autophagy induction (TERT-RPE1; [25]) was 6.165% and 16.6943% and the autophagy induction (TERT-RPE1; Compound Concentration 10 uM, Timepoint 60 hours, 60 h, 10 µM) was 11.326% and 28.0498%. For the same compound, the autophagy induction (U2OS [2]; [3]) was -8.786%, the autophagy induction (U2OS [2]; [4]) was -9.572% and the autophagy induction (U2OS [2]; [5]) was -12.5258%. The autophagy induction (U2OS [2]; [6]) was -16.7068%, the autophagy induction (U2OS [2]; [7]) was -3.79% and the autophagy induction (U2OS [2]; [8]) was -9.305%. For the same compound, the autophagy induction (U2OS [2]; [9]) was -13.7756%, the autophagy induction (U2OS [2]; [10]) was -18.6617% and the autophagy induction (U2OS [2]; [11]) was -6.744%. It also gave an autophagy induction (U2OS [2]; [12]) of -13.3744%, an autophagy induction (U2OS [2]; [13]) of -5.479% and an autophagy induction (U2OS [2]; [14]) of -4.839%.

`CCCSc1nc(N[C@@H]2C[C@H]2c2ccc(F)c(F)c2)c2nnn([C@@H]3C[C@H](OCCO)[C@@H](O)[C@H]3O)c2n1` [TICAGRELOR] gave an autophagy induction (U2OS [1]; [3]) of -3.602%, an autophagy induction (U2OS [1]; [4]) of -3.07% and an autophagy induction (U2OS [1]; [5]) of -60.4394%. The autophagy induction (U2OS [1]; [6]) was -2.316%, the autophagy induction (U2OS [1]; [7]) was -5.583% and the autophagy induction (U2OS [1]; [8]) was -3.174%. It also gave an autophagy induction (U2OS [1]; [9]) of -60.5106%, an autophagy induction (U2OS [1]; [10]) of -3.163% and an autophagy induction (U2OS [1]; [11]) of -2.648%. For the same compound, the autophagy induction (U2OS [1]; [12]) was 1.759%, the autophagy induction (U2OS [1]; [13]) was -58.5177% and the autophagy induction (U2OS [1]; [14]) was -2.994%. The autophagy induction (TERT-RPE1; [15]) was -0.3223% and -0.8015%, the autophagy induction (TERT-RPE1; [16]) was 2.932% and -1.64% and the autophagy induction (TERT-RPE1; [17]) was 3.182% and -0.1292%. For the same compound, the autophagy induction (TERT-RPE1; [18]) was 6.614% and -2.465%, the autophagy induction (TERT-RPE1; [19]) was -2.164% and 3.738% and the autophagy induction (TERT-RPE1; [20]) was 2.13% and 2.219%. The autophagy induction (TERT-RPE1; [21]) was 3.83% and 3.863%, the autophagy induction (TERT-RPE1; [22]) was 10.3636% and 4.688% and the autophagy induction (TERT-RPE1; [23]) was 2.799% and 5.117%. The autophagy induction (TERT-RPE1; [24]) was 8.7588% and 7.492%, the autophagy induction (TERT-RPE1; [25]) was 16.5266% and 7.688% and the autophagy induction (U2OS [2]; [3]) was -9.844%. The autophagy induction (U2OS [2]; [4]) was -12.5107%, the autophagy induction (U2OS [2]; [5]) was -15.2375% and the autophagy induction (U2OS [2]; [6]) was -18.2861%. It also gave an autophagy induction (U2OS [2]; [7]) of 2.324%, an autophagy induction (U2OS [2]; [8]) of -7.302% and an autophagy induction (U2OS [2]; [9]) of -3.06%. The autophagy induction (U2OS [2]; [10]) was -7.4162%, the autophagy induction (U2OS [2]; [11]) was -4.369% and the autophagy induction (U2OS [2]; [12]) was -2.6496%. For the same compound, the autophagy induction (U2OS [2]; [13]) was -0.7195% and the autophagy induction (U2OS [2]; [14]) was 1.979%.

From ChEMBL document CHEMBL5724696, “Autophagy assay results for EUbOPEN Chemogenomics Library” (2024)
